The results in this text go back to patent publication US5352599A, “Co-enzyme-independent L-sorbosone dehydrogenase of gluconobacter oxydans: isolation, characterization, and cloning and autologus expression of the gene” (Hoffmann-La Roche Inc., priority 1988, dated 1994).

Series [1] addresses T1, membrane-bound L-sorbosone dehydrogenase from Gluconobacter oxydans IFO 12258, purified, coenzyme independent (Gluconacetobacter liquefaciens, UniProt Q44091).
T1 construct: endogenous in cells; host or cells: Gluconobacter oxydans IFO 12258 (enzyme isolated from the strain itself)
T1 sequence (Q44091 1-449): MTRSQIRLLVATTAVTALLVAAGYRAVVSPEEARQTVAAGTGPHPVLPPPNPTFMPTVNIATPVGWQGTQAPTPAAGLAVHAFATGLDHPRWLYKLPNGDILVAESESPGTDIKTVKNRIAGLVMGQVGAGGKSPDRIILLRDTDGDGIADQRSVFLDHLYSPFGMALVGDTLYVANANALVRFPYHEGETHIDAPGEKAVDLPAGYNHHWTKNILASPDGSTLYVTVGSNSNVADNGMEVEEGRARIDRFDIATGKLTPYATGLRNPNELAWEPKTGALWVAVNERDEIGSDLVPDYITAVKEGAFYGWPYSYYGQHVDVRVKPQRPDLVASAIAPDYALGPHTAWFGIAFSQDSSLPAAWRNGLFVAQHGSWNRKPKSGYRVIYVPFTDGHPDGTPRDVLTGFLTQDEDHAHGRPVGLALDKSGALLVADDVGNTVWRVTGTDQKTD
Kind of series: L-sorbosone dehydrogenase enzyme assay (DCIP reduction at 600 nm, 25° C.). The format is biochemical. On the procedure: (§1) Enzyme assay was performed at 25° C. by measuring the decrease of absorbance at 600nm of DCIP spectrophotometrically. One unit of enzyme activity was defined as the amount of enzyme which catalyzed the reduction of 1 μmole of DCIP per minute.
(§2) The extinction coefficient of DCIP at pH 7.0 was taken as 9.45mM^-1. The basal reaction mixture is shown below. The mixture was prepared just before the assay.
(§3) A cuvette with 1cm light path contained 0.4ml of basal mixture, 20μl of 10mM phenazine methosulphate, 10μl of enzyme solution and 20μl of 110mM L-sorbosone solution in a final volume of 0.45ml. A reference cuvette contains all components except the substrate. The reaction was initiated by the addition of the substrate. Enzyme activity was measured as the initial reduction rate of DCIP.

Substrate in series [2]: O=CC(=O)[C@@H](O)[C@H](O)[C@@H](O)CO
The description is as above. The format is biochemical, Gluconobacter oxydans IFO 12258. Conditions: other: pH7.0, purified enzyme, pH 7.0. The protocol: as §1, §2, §3

As for `[N-]=[N+]=[N-].[Na+]` [NaN3], the “Relative activity (%) in presence of inhibitor” value in series [1] (inhibitor 25 mM, L-Sorbosone as the substrate, None = 100) is 89.4%. For the molecule `O=C(O)CI` [ICH2 COOH, Monoiodoacetic acid], the “inhibition of the enzyme (in words)” value in series [1] is “moderately inhibited”. For the same molecule, the inhibition at 10000 µM in series [1] (read-out: Relative activity (%) in presence of inhibitor) is 64.3%.

B1: membrane-bound L-sorbosone dehydrogenase from Gluconobacter oxydans IFO 12258, purified, coenzyme independent (Gluconacetobacter liquefaciens) (protein)
chain: T1 sequence (Q44091 1-449)
notes: endogenous in cells; host or cells: Gluconobacter oxydans IFO 12258 (enzyme isolated from the strain itself)
As usually defined, the Km is the substrate concentration at which the rate is half of its maximum. Turning to B1, the Michaelis-Menten constant (Km) in series [2] stood at 16.7 mM.
